# In PubChem BioAssay (NCI):
#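 Cells were grown in 96-well plates and exposed to each compound for 48 hours at five concentrations; endpoints were interpolated linearly between bracketing concentrations, or set to the highest concentration if not reached. At the GI50, growth is halved. At the TGI there is no net growth.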
# Assays:
# Experiment in all cases: NCI anticancer screen, dose series, 48 h
# OVCAR-8 ovarian = system: OVCAR-8 ovarian
# T-47D breast = system: T-47D breast
# SK-MEL-28 melanoma = system: SK-MEL-28 melanoma
# KM12 colon = system: KM12 colon
# IGROV1 ovarian = system: IGROV1 ovarian
# CAKI-1 renal = system: CAKI-1 renal
# SK-MEL-5 melanoma = system: SK-MEL-5 melanoma
# M14 melanoma = system: M14 melanoma
# NCI-H522 lung = system: NCI-H522 lung
# HT29 colon = system: HT29 colon
# A498 renal = system: A498 renal
# OVCAR-3 ovarian = system: OVCAR-3 ovarian
# SF-539 CNS = system: SF-539 CNS
# PC-3 prostate = system: PC-3 prostate
# U251 CNS = system: U251 CNS
# COLO 205 colon = system: COLO 205 colon
# HCT-116 colon = system: HCT-116 colon
# SN12C renal = system: SN12C renal
# UACC-62 melanoma = system: UACC-62 melanoma
# SK-OV-3 ovarian = system: SK-OV-3 ovarian
# SF-295 CNS = system: SF-295 CNS
# LOX IMVI melanoma = system: LOX IMVI melanoma
# HOP-62 NSCLC = system: HOP-62 NSCLC
# DU-145 prostate = system: DU-145 prostate
# SK-MEL-2 melanoma = system: SK-MEL-2 melanoma
# HOP-92 NSCLC = system: HOP-92 NSCLC
# SR leukemia = system: SR leukemia
# MDA-MB-231 breast = system: MDA-MB-231 breast
# SF-268 CNS = system: SF-268 CNS
# MOLT-4 leukemia = system: MOLT-4 leukemia
# MALME-3M melanoma = system: MALME-3M melanoma
# OVCAR-4 ovarian = system: OVCAR-4 ovarian
# OVCAR-5 ovarian = system: OVCAR-5 ovarian
# BT-549 breast = system: BT-549 breast
# MDA-MB-468 breast = system: MDA-MB-468 breast
# HCT-15 colon = system: HCT-15 colon
# UACC-257 melanoma = system: UACC-257 melanoma
# HL-60(TB) leukemia = system: HL-60(TB) leukemia
# MDA-MB-435 = system: MDA-MB-435
# RXF 393 renal = system: RXF 393 renal
# NCI/ADR-RES ovarian = system: NCI/ADR-RES ovarian
# RPMI-8226 leukemia = system: RPMI-8226 leukemia
# EKVX NSCLC = system: EKVX NSCLC
# HCC-2998 colon = system: HCC-2998 colon
# NCI-H226 lung = system: NCI-H226 lung
# SNB-75 CNS = system: SNB-75 CNS
# SW-620 colon = system: SW-620 colon
# NCI-H460 lung = system: NCI-H460 lung
# NCI-H23 lung = system: NCI-H23 lung
# 786-0 renal = system: 786-0 renal
# MCF7 breast = system: MCF7 breast
# HS 578T breast = system: HS 578T breast
# ACHN renal = system: ACHN renal
# CCRF-CEM leukemia = system: CCRF-CEM leukemia
# A549 NSCLC = system: A549 NSCLC
# TK-10 renal = system: TK-10 renal
# K-562 leukemia = system: K-562 leukemia
# SNB-19 CNS = system: SNB-19 CNS
# UO-31 renal = system: UO-31 renal
compound,measurement,setting,value
O=C(c1ccc(Cl)cc1)C(c1c[nH]c2ccccc12)c1c[nH]c2ccccc12,GI50,OVCAR-8 ovarian,11.2 µM
same,TGI,OVCAR-8 ovarian,24.2 µM
same,GI50,T-47D breast,3.01 µM
same,TGI,T-47D breast,16 µM
same,GI50,SK-MEL-28 melanoma,2.36 µM
same,TGI,SK-MEL-28 melanoma,6.42 µM
same,GI50,KM12 colon,8.98 µM
same,TGI,KM12 colon,22 µM
same,GI50,IGROV1 ovarian,4.05 µM
same,TGI,IGROV1 ovarian,16.8 µM
same,GI50,CAKI-1 renal,2.94 µM
same,TGI,CAKI-1 renal,14.3 µM
same,GI50,SK-MEL-5 melanoma,11.3 µM
same,TGI,SK-MEL-5 melanoma,23.7 µM
same,GI50,M14 melanoma,2.9 µM
same,TGI,M14 melanoma,12.7 µM
same,GI50,NCI-H522 lung,1.74 µM
same,TGI,NCI-H522 lung,3.52 µM
same,GI50,HT29 colon,2.79 µM
same,TGI,HT29 colon,6.97 µM
same,GI50,A498 renal,18 µM
same,TGI,A498 renal,34.1 µM
same,GI50,OVCAR-3 ovarian,2.56 µM
same,TGI,OVCAR-3 ovarian,7.18 µM
same,GI50,SF-539 CNS,5.53 µM
same,TGI,SF-539 CNS,18.8 µM
same,GI50,PC-3 prostate,3.08 µM
same,TGI,PC-3 prostate,12.7 µM
same,GI50,U251 CNS,10.8 µM
same,TGI,U251 CNS,24.1 µM
same,GI50,COLO 205 colon,16.3 µM
same,TGI,COLO 205 colon,31.2 µM
same,GI50,HCT-116 colon,1.65 µM
same,TGI,HCT-116 colon,3.16 µM
same,GI50,SN12C renal,3.13 µM
same,TGI,SN12C renal,12 µM
same,GI50,UACC-62 melanoma,4.49 µM
same,TGI,UACC-62 melanoma,17.6 µM
same,GI50,SK-OV-3 ovarian,14.1 µM
same,TGI,SK-OV-3 ovarian,27.7 µM
same,GI50,SF-295 CNS,12.1 µM
same,TGI,SF-295 CNS,24.9 µM
same,GI50,LOX IMVI melanoma,1.68 µM
same,TGI,LOX IMVI melanoma,3.26 µM
same,GI50,HOP-62 NSCLC,13 µM
same,TGI,HOP-62 NSCLC,27.3 µM
same,GI50,DU-145 prostate,4.36 µM
same,TGI,DU-145 prostate,16.4 µM
same,GI50,SK-MEL-2 melanoma,12.2 µM
same,TGI,SK-MEL-2 melanoma,26.1 µM
same,GI50,HOP-92 NSCLC,3.32 µM
same,TGI,HOP-92 NSCLC,16.8 µM
same,GI50,SR leukemia,2.73 µM
same,TGI,SR leukemia,10.9 µM
same,GI50,MDA-MB-231 breast,4.87 µM
same,TGI,MDA-MB-231 breast,20.2 µM
same,GI50,SF-268 CNS,4.85 µM
same,TGI,SF-268 CNS,19.8 µM
same,GI50,MOLT-4 leukemia,2.69 µM
same,TGI,MOLT-4 leukemia,12.2 µM
same,GI50,MALME-3M melanoma,3.41 µM
same,TGI,MALME-3M melanoma,15.9 µM
same,GI50,OVCAR-4 ovarian,5.23 µM
same,TGI,OVCAR-4 ovarian,18.2 µM
same,GI50,OVCAR-5 ovarian,3.79 µM
same,TGI,OVCAR-5 ovarian,15.5 µM
same,GI50,BT-549 breast,4.09 µM
same,TGI,BT-549 breast,14.4 µM
same,GI50,MDA-MB-468 breast,2.69 µM
same,TGI,MDA-MB-468 breast,7.65 µM
same,GI50,HCT-15 colon,2.21 µM
same,TGI,HCT-15 colon,6.16 µM
same,GI50,UACC-257 melanoma,4.93 µM
same,TGI,UACC-257 melanoma,18.1 µM
same,GI50,HL-60(TB) leukemia,2.6 µM
same,TGI,HL-60(TB) leukemia,8.35 µM
same,GI50,MDA-MB-435,3.85 µM
same,TGI,MDA-MB-435,14.3 µM
same,GI50,RXF 393 renal,2.93 µM
same,TGI,RXF 393 renal,9.21 µM
same,GI50,NCI/ADR-RES ovarian,3.52 µM
same,TGI,NCI/ADR-RES ovarian,15.8 µM
same,GI50,RPMI-8226 leukemia,3.01 µM
same,TGI,RPMI-8226 leukemia,15.4 µM
same,GI50,EKVX NSCLC,6.46 µM
same,TGI,EKVX NSCLC,20.8 µM
same,GI50,HCC-2998 colon,2.33 µM
same,TGI,HCC-2998 colon,5.8 µM
same,GI50,NCI-H226 lung,8.88 µM
same,TGI,NCI-H226 lung,24.7 µM
same,GI50,SNB-75 CNS,2.43 µM
same,TGI,SNB-75 CNS,13.3 µM
same,GI50,SW-620 colon,2.99 µM
same,TGI,SW-620 colon,9.91 µM
same,GI50,NCI-H460 lung,3.65 µM
same,TGI,NCI-H460 lung,14.9 µM
same,GI50,NCI-H23 lung,4.05 µM
same,TGI,NCI-H23 lung,17.4 µM
same,GI50,786-0 renal,2.12 µM
same,TGI,786-0 renal,4.22 µM
same,GI50,MCF7 breast,2.38 µM
same,TGI,MCF7 breast,8.25 µM
same,GI50,HS 578T breast,13.4 µM
same,TGI,HS 578T breast,45.8 µM
same,GI50,ACHN renal,1.91 µM
same,TGI,ACHN renal,4.17 µM
same,GI50,CCRF-CEM leukemia,3.21 µM
same,TGI,CCRF-CEM leukemia,> 100 µM
same,GI50,A549 NSCLC,13.5 µM
same,TGI,A549 NSCLC,31.6 µM
same,GI50,TK-10 renal,18.9 µM
same,TGI,TK-10 renal,33.2 µM
same,GI50,K-562 leukemia,2.99 µM
same,TGI,K-562 leukemia,9.64 µM
same,GI50,SNB-19 CNS,15.4 µM
same,TGI,SNB-19 CNS,29.6 µM
same,GI50,UO-31 renal,3.41 µM
same,TGI,UO-31 renal,17 µM
